# From US4211876A, “3-Pyrazolidinone carboxamides” (E. I. Du Pont de Nemours and Company, priority 1979, dated 1980)
# Experiments:
# [1] = system: ethanol-induced gastric ulcer; experiment: ethanol-induced gastric ulcer test in rats (gastric cytoprotection); format: in vivo, rat; conditions: for protection against ulcers: 2.0 mg/kg
# Procedure: One of these compounds is the tert-butylcarboxamide 7 of Example 3. In a test designed to detect gastric cytoprotectin [Robert, U.S. Pat. No. 4,097,603], compound 7 inhibited ethanol-induced gastric ulcer to the extent of about 50 % when administered orally to rats at 2 mg/kg. Under similar conditions 0.5 mg/kg of PGE1 inhibited ulcer formation to the extent of 80%. […] At 2.0 mg/kg compound 14 of Example 7 gave about 18% protection and compound 16 of Example 8 gave about 27% protection against ulcers.
# [2] = system: rat stomach strip (fundus), contraction caused by PGE1; experiment: rat stomach assay: PGE1 antagonism, inhibition of PGE1-induced contraction of rat stomach fundus muscle strips; format: cell-based; conditions: Tyrode solution pH 7.1, 37°, PGE1 at concentration causing about 25% of maximum response; for IC50: Rattus norvegicus, pH 7.1, rat stomach fundus strip, read-out: PGE1 Antagonist IC50
# Procedure: J. Pharmacol. 12, 344 (1957)]. Male rats are decapitated and a strip is cut from the fundus of the stomach along the greater curvature. The strip (3 to 5 mm wide and 3 to 4 cm long) is suspended in Tyrode solution at pH 7.1 and 37° and gassed continuously with oxygen. Responses of the muscle are monitored isometrically by means of a strain gauge transducer. The above table lists for several compounds of this invention the concentration in μg/ml required to inhibit by 50% the contraction of muscle strips caused by a concentration of PG1 that normally causes about 25% of maximum responses ([…]). Some of the carboxamides were also run against higher concentration of PGE1 and gave greater IC50 values.
# [3] = pKa measured in 1:1 ethanol/water; format: physicochemical; conditions: p-toluenesulfonate salt
# Procedure: This iodamide was treated with pyrazolidinone 6 by a procedure analogous to that used for the synthesis of 10, Example 4b. The crude product 15, was obtained as an oil in 94% yield. A solution of 6.84 g of 15 in 3 ml of dry acetonitrile was added to a solution of 3.39 g of p-toluenesulfonic acid in 26 ml of dry acetonitrile, giving 5.12 g (66%) of salt 16, mp 123°-126°. Recrystallization from acetonitrile gave analytically pure salt 16, mp 129°-130.5°; Anal. calcd. for C28 H49 N3 SO6 : C, 60.51; H, 8.89; N, 7.56; found C, 60.50; H, 8.75; N, 7.89.
# [4] = side effects after oral administration to rats; format: in vivo, rat
# [5] = rats, oral, doses as high as 300 mg/kg
IC50 [2] [µg/mL],Compound,also measured
25,"CCCCCC(O)CCN1CCC(=O)N1CCCCCCC(=O)NC(C)(C)CC (stereo not drawn) [Compound 5, N(tert-Amyl)7[3-oxo-1(3-hydroxy-n-octyl)pyrazolidin-2-yl]heptanamide]",–
3 to 5,"CCCCCC(O)CCN1C(=O)CCN1CCCCCCC(=O)NCC(C)(C)C (stereo not drawn) [Compound 10, N(2,2-Dimethylpropyl)7[3-oxo-2(3-hydroxy-n-octyl)-pyrazolidin-1-yl]heptanamide]",–
175,"CCCCCC(O)CCN1C(=O)CCN1CCCCCCC(=O)NC (stereo not drawn) [Compound 17, N-methyl-7[3-oxo-2(hydroxy-n-octyl)pyrazolidin-1-yl]heptanamide]",–
5,"CCCCCC(O)CCN1C(=O)CCN1CCCCCCC(=O)NC(C)(C)CC (stereo not drawn) [Compound 12, N(1,1-Dimethylpropyl)7-[3-oxo-2(3-hydroxy-n-octyl)pyrazolidin-1-yl]heptanamide]",–
60,"CCCCCC(O)CCN1CCC(=O)N1CCCCCCC(=O)NC(C)(C)C (stereo not drawn) [Compound 1, N-(tert-butyl)-7[3-oxo-1(3-hydroxy-n-octyl)pyrazolidin-2-yl]heptanamide]",–
20,"CCCCCC(O)CCN1C(=O)CCN1CCCCCCC(=O)N(C(C)C)C(C)C (stereo not drawn) [Compound 13, N,N(Diisopropyl)7-[3-oxo-2(3-hydroxy-n-octyl)-pyrazolidin-1-yl]heptanamide]",–

# The next lines start with the compound.
Compound,IC50 [2] [µg/mL],also measured
"CCCCC[C@H](O)/C=C/[C@H]1[C@H](O)CC(=O)[C@@H]1CCCCCCC(=O)O [PGE1, reference compound]",–,"inhibition of ulcer formation ([1]; similar conditions, 0.5 mg/kg): 80%"
"CCCCCC(O)CCN1C(=O)CCN1CCCCCCC(=O)NC(C)C (stereo not drawn) [Compound 16, N(iso-Propyl)7[3-oxo-2(3-hydroxy-n-octyl)pyrazolidin-1-yl]heptanamide]",75,protection against ulcers [1]: about 27%; pKa [3]: 3.25
"CCCCCC(O)CCN1C(=O)CCN1CCCCCCC(=O)NC(C)(C)C (stereo not drawn) [Compound 9, N(tert-Butyl)7[3-oxo-2-(3-hydroxy-n-octyl)pyrazolidin-1-yl]heptanamide]",–,PGE1 Antagonist IC50 ([2]; rat stomach fundus strip): 60 µg/mL
"CCCCCC(O)CCN1C(=O)CCN1CCCCCCC(=O)NC(C)(C)C (stereo not drawn) [Compound 7, N(tert-Butyl)7[3-oxo-2-(3-hydroxy-n-octyl)pyrazolidin-1-yl]heptanamide]",33,"inhibition of ethanol-induced gastric ulcer ([1]; oral, 2 mg/kg): about 50%; overt prostaglandin-like side effects ([4]; rat, in vivo, po): no overt prostaglandin-like side effects; diarrhea [4, 5]: no mortality or diarrhea; mortality [4, 5]: no mortality"
"CCCCCC(O)CCN1C(=O)CCN1CCCCCCC(=O)NC(C)(C)CC(C)(C)C (stereo not drawn) [Compound 14, N(1,1,3,3,-Tetramethyl-n-butyl)7[3-oxo-2(3-hydroxy-n-octyl)pyrazolidin-1-yl]heptanamide]",2,protection against ulcers [1]: about 18%
